Assay [1] has as its target RAC-alpha serine/threonine-protein kinase (Homo sapiens) (UniProt P31749). Kind of assay: Induction of Akt phosphorylation in human Huh7 cells up to 50 uM measured after 2 hrs by Western blot method. The format is cell-based. On the technique in general: Immunoblotting shows a protein as a band on a membrane.
Assay [2] addresses T1, Tyrosine-protein phosphatase non-receptor type 1 (Homo sapiens) (UniProt P18031).
T1 sequence (whole entry): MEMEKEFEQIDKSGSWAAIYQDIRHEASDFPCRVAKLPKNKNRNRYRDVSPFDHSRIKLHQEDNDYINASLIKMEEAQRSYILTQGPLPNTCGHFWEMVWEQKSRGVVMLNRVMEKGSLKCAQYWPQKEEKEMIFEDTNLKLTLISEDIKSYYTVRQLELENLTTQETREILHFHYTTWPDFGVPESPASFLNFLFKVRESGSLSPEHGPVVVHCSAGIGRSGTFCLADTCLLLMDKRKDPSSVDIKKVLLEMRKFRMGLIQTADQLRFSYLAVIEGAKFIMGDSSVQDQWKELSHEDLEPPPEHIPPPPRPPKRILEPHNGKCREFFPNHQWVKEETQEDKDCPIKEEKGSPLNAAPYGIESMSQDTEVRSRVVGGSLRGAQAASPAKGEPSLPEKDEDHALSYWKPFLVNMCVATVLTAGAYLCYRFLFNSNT
Nature of the assay: Inhibition of PTP1B in human Huh7 cells assessed as increase in insulin-stimulated Akt phosphorylation preincubated for 1 to 2 hrs followed by insulin addition measured after 5 mins by Western blot method. The assay is classed as cell-based.

Assay [3] has as its target RAC-alpha serine/threonine-protein kinase (Homo sapiens) (UniProt P31749). Nature of the assay: Induction of Akt phosphorylation in human Huh7 cells measured after 2 hrs by Western blot method. The format is cell-based.
The target in assay [4] is T2, Tyrosine-protein phosphatase non-receptor type 2 (Homo sapiens, UniProt P17706).
T2 sequence (P17706 whole entry): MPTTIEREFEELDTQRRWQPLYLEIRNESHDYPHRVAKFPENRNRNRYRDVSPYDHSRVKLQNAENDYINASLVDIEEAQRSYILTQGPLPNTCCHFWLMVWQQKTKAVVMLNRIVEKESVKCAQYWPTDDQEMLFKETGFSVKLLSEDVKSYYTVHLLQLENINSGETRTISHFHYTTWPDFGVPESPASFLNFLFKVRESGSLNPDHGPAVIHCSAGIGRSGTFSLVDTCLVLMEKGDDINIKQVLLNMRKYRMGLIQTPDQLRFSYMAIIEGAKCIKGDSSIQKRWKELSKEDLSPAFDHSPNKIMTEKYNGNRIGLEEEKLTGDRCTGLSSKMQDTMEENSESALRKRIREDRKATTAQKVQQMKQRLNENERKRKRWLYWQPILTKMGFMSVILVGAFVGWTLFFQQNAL
Kind of assay: Inhibition of human recombinant TCPTP (1 to 317 residues) expressed in Escherichia coli using pNPP as substrate preincubated for 10 mins followed by substrate addition measured after 30 mins.

In assay [5] the target is T3, Receptor-type tyrosine-protein phosphatase C (Homo sapiens, UniProt P08575).
T3 sequence (P08575 whole entry): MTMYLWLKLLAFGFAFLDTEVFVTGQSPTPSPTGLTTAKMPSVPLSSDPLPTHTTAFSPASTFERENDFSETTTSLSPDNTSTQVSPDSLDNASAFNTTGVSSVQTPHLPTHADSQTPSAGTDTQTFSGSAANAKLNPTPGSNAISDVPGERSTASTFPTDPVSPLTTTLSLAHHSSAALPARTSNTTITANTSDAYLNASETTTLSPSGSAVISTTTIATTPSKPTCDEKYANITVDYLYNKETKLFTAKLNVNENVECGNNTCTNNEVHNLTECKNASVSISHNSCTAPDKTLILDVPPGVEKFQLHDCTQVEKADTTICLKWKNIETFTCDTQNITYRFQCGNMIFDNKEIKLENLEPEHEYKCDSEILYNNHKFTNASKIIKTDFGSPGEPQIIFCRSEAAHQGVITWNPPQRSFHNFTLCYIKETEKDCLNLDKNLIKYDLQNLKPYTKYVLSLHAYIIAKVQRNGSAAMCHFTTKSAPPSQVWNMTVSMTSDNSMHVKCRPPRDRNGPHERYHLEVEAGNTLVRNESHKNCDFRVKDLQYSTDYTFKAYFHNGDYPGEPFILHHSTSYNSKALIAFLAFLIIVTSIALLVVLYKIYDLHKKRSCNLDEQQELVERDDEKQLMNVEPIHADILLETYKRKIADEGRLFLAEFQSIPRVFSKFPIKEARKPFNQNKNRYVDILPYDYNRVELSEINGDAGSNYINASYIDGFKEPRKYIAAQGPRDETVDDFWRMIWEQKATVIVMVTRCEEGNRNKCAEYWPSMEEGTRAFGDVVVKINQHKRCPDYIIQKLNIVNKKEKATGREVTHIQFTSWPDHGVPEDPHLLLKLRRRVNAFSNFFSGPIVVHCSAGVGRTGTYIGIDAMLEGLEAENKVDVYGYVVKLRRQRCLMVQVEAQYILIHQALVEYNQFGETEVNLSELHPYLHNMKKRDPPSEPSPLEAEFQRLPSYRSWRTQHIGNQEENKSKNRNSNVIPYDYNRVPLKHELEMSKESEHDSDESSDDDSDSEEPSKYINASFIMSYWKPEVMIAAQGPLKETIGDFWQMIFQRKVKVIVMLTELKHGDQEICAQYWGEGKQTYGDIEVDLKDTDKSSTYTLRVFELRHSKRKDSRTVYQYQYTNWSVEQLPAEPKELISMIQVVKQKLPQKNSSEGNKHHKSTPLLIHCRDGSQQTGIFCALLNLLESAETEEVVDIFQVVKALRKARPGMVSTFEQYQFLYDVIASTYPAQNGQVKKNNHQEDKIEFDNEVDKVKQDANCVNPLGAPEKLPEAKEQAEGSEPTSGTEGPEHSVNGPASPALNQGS
Kind of assay: Inhibition of human recombinant CD45 using pNPP as substrate preincubated for 10 mins followed by substrate addition measured after 30 mins.

The target in assay [6] is T4, Tyrosine-protein phosphatase non-receptor type 1 (Homo sapiens, UniProt P18031).
T4 sequence (P18031 whole entry): T1 sequence (whole entry)
Nature of the assay: Inhibition of human recombinant PTP1B (1 to 322 residues) expressed in Escherichia coli using pNPP as substrate preincubated for 10 mins followed by substrate addition measured after 30 mins.

Assay [7] concerns the target RAC-alpha serine/threonine-protein kinase (Homo sapiens) (UniProt P31749). Nature of the assay: Activation of AKT in human Huh7 cells assessed as increase in insulin-stimulated Akt phosphorylation preincubated for 1 to 2 hrs followed by insulin addition measured after 5 mins by Western blot method. The format is cell-based.
Assay [8] has as its target Dual specificity protein phosphatase 3 (Homo sapiens, UniProt P51452). Kind of assay: Inhibition of human recombinant VHR expressed in Escherichia coli using pNPP as substrate preincubated for 10 mins followed by substrate addition measured after 30 mins.

Consider 3 molecules from ChEMBL document CHEMBL4038296, “A bromopyrrole-containing diterpene alkaloid from the Okinawan marine sponge Agelas nakamurai activates the insulin pathway in Huh-7 human hepatoma cells by inhibiting protein tyrosine phosphatase 1B” (Bioorg Med Chem Lett, 2017).

By IC50 is commonly meant the point on the concentration scale where inhibition reaches its midpoint.

Activity calls are given as the source filed them. The calls are words filed in the database; no cut-off is given here.

Sequence of RAC-alpha serine/threonine-protein kinase (Homo sapiens) (P31749 whole entry): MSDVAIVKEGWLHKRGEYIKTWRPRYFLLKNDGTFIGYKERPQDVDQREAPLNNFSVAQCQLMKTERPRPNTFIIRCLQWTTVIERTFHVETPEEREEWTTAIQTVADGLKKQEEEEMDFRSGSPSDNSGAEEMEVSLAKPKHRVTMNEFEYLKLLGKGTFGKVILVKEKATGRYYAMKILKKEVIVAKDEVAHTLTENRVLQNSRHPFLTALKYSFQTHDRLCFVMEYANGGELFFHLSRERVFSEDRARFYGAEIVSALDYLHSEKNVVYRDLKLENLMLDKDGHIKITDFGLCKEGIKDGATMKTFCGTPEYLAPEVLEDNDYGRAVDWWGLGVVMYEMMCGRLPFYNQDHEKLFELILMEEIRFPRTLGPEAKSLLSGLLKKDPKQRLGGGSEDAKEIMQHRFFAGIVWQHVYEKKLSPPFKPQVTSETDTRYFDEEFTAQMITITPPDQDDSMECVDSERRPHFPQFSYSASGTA
Sequence of Dual specificity protein phosphatase 3 (P51452 whole entry): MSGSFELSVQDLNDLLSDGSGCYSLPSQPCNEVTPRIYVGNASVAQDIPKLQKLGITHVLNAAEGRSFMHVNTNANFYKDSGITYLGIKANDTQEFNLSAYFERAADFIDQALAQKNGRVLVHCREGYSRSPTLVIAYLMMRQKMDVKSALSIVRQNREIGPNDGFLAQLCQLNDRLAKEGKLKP

For `C/C(=C\Cn1c[n+](C)c2ncnc(N)c21)CC[C@]1(C)[C@@H](C)CC[C@@]2(C)C(COC(=O)c3cc(Br)c[nH]3)=CCC[C@@H]12`, the result in assay [1] was inactive. In assay [2], the inhibition entry is “Dose-dependent effect”. Further, in assay [3], the Activity result is “Dose-dependent effect”.
Take `C/C(=C\Cn1c[n+](C)c2ncnc(N)c21)CC[C@]1(C)[C@@H](C)CC[C@@]2(C)C(COC(=O)c3ccc[nH]3)=CCC[C@@H]12`: the IC50 in assay [4], in assay [5], in assay [6] and in assay [8] was more than 19 µM each time. For the same molecule, the result in assay [1] was inactive. Moreover, the Activity result in assay [7] and in assay [3] was “Dose-dependent effect” throughout.
As for `C/C(=C\C[n+]1cn(C)c2ncnc(N)c21)CC[C@]1(C)[C@@H](C)CC[C@@]2(C)C(COC(=O)c3cc(Br)c[nH]3)=CCC[C@@H]12`, the IC50 in assay [4] was more than 16 µM; in assay [5] it was more than 16 µM; in assay [6], 15 µM; in assay [8], 13 µM.
